From US8202885B2, “Bridged six-membered ring compounds” (Actelion Pharmaceuticals Ltd., priority 2007, dated 2012)

System: human Cav3.1 Cav3.2 or Cav3.3 channel
Assay: In vitro assay T channel (FLIPR calcium fluorescence)
Assay type: cell-based
Conditions: HEK293 cells expressing human Cav3.1, Cav3.2 or Cav3.3; 10 mM Ca2+-induced fluo-4 fluorescence; determined up to 10 μM; read-out: T channel antagonistic activity IC50
Procedure: The T channel antagonistic activity (IC50 values) of the compounds of formula (I) is determined in accordance with the following experimental method and data are shown in Table 1.
Human embryonic kidney (HEK293) cells expressing the human Cav3.1 Cav3.2 or Cav3.3 channel, respectively, are grown in culture medium (DMEM containing 10% heat-inactivated fetal calf serum (FCS), 100 U/ml penicillin, 100 μg/ml streptomycin and 1 mg/ml G418). The cells are seeded at 20.000 cells/well into 384-well black clear bottom sterile plates (poly-L-lysine-coated, Becton Dickinson). The seeded plates are incubated overnight at 37° C. in 5% CO2. The Ca^2+ solution is prepared as 100 mM stock solution in 100 mM tetraethylammoniumchloride (TEA-chloride), 50 mM HEPES, 2.5 mM CaCl2, 5 mM KCl, 1 mM MgCl2, adjusted to pH 7.2 with TEA-hydroxide, for use in the assay at a final concentration of 10 mM. Antagonists are prepared as 10 mM stock solutions in DMSO, then diluted in 384 w plates first in DMSO, then in 100 mM TEA-chloride, 50 mM HEPES, 2.5 mM CaCl2, 5 mM KCl, 1 mM MgCl2, adjusted to pH 7.2 with TEA-hydroxide, to obtain 9× stocks. On the day of the assay, 25 μl of staining buffer (HBSS containing 20 mM HEPES, 0.375 g/l NaHCO3 and 3 μM of the fluorescent calcium indicator fluo-4 AM (1 mM stock solution in DMSO, containing 10% pluronic) is added to each well of the seeded plate. The 384-well cell-plates are incubated for 60 min at 37° C. in 5% CO2 followed by washing with 2×50 μl per well using HBSS containing 0.1% BSA, 20 mM HEPES, 0.375 g/l NaHCO3, leaving 50 […] of this buffer for equilibration at room temperature (30-60 min). Within the Fluorescent Imaging Plate Reader (FLIPR, Molecular Devices), antagonists are added to the plate in a volume of 6.25 μl/well, incubated for 3 min, and finally 6.25 […] of Ca^2+ solution is added. Fluorescence is measured for each well at 2 second intervals for 8 minutes, and the area under the curve of each fluorescence peak is compared to the area of the fluorescence peak induced by 10 mM Ca^2+ with vehicle in place of antagonist. For each antagonist, the IC50 value (the concentration (in nM) of compound needed to inhibit 50% of the Ca^2+-induced fluorescence response) up to 10 μM is determined.

SMILES	IC50 [µM]
COc1cccc2nc(CCN(C)CC[C@]3(OC(=O)C(C)C)C[C@H]4CC[C@@H]3C=C4c3ccccc3)[nH]c12 (relative stereo) [Example 32A, rac-Isobutyric acid (1R*,2R*,4R*)-2-(2-{[2-(7-methoxy-1H-benzoimidazol-2-yl)-ethyl]-methyl-amino}-ethyl)-5-phenyl-bicyclo[2.2.2]oct-5-en-2-yl ester]	3.39
CN(CCCc1nc2ccccc2[nH]1)CCC1(O)CC2CCC1C=C2c1ccccc1 (single isomer, unassigned) [Example 12, (1R,2R,4R)-2-(2-{[3-(1H-Benzoimidazol-2-yl)-propyl]-methyl-amino}-ethyl)-5-phenyl-bicyclo[2.2.2]oct-5-en-2-ol or (1S,2S,4S)-2-(2-{[3-(1H-benzoimidazol-2-yl)-propyl]-methyl-amino}-ethyl)-5-phenyl-bicyclo[2.2.2]oct-5-en-2-ol]	> 10
CC(C)C(=O)O[C@@]1(CCN(C)CCc2nc3ccccc3[nH]2)C[C@H]2CC[C@@H]1C=C2c1ccccc1 (relative stereo) [Example 13A, rac-Isobutyric acid (1R*,2R*,4R*)-2-(2-{[2-(1H-benzoimidazol-2-yl)-ethyl]-methyl-amino}-ethyl)-5-phenyl-bicyclo[2.2.2]oct-5-en-2-yl ester]	4.34
Cc1ccc(C2=C[C@H]3CC[C@@H]2C[C@]3(CCN(C)CCCc2nc3ccccc3[nH]2)OC(=O)C(C)C)cc1 (relative stereo) [Example 6A, rac-Isobutyric acid (1R*,2R*,4R*)-2-(2-{[3-(1H-benzoimidazol-2-yl)-propyl]-methyl-amino}-ethyl)-5-(4-methyl-phenyl)-bicyclo[2.2.2]oct-5-en-2-yl ester]	6.83
CCCC1=C(C)[C@H]2CC[C@@H]1C[C@]2(CCN(C)CCCN(C)C(=O)C(C)(COC)COC)OC(=O)C(C)C (relative stereo) [Example 52A, rac-Isobutyric acid (1R*,2R*,4R*)-2-[2-({3-[(3-methoxy-2-methoxymethyl-2-methyl-propionyl)-methyl-amino]-propyl}-methyl-amino)-ethyl]-6-methyl-5-propyl-bicyclo[2.2.2]oct-5-en-2-yl ester]	4.21
Cc1cc2cc(CCCN(C)CC[C@]3(O)C[C@H]4CC[C@@H]3C=C4c3ccccc3)cnc2o1 (relative stereo) [Example 42, rac-(1R*,2R*,4R*)-2-(2-{Methyl-[3-(2-methyl-furo[2,3-b]pyridin-5-yl)-propyl]-amino}-ethyl)-5-phenyl-bicyclo[2.2.2]oct-5-en-2-ol]	> 10
CN(CCCc1cnc2ccccc2c1)CC[C@]1(O)C[C@H]2CC[C@@H]1C=C2c1ccccc1 (relative stereo) [Example 49, rac-(1R*,2R*,4R*)-2-{2-[Methyl-(3-quinolin-3-yl-propyl)-amino]-ethyl}-5-phenyl-bicyclo[2.2.2]oct-5-en-2-ol]	> 10
COc1cccc2[nH]c(CCCN(C)CC[C@]3(OC(=O)OC(C)C)C[C@H]4CC[C@@H]3C=C4c3ccccc3)nc12 (relative stereo) [Example 26G, rac-Carbonic acid isopropyl ester (1R*,2R*,4R*)-2-(2-{[3-(4-methoxy-1H-benzoimidazol-2-yl)-propyl]-methyl-amino}-ethyl)-5-phenyl-bicyclo[2.2.2]oct-5-en-2-yl ester]	0.935
CN(CCc1nc2ccccc2[nH]1)CC[C@]1(O)C[C@H]2CC[C@@H]1C=C2c1ccccc1 (relative stereo) [Example 13, rac-(1R*,2R*,4R*)-2-(2-{[2-(1H-Benzoimidazol-2-yl)-ethyl]-methyl-amino}-ethyl)-5-phenyl-bicyclo[2.2.2]oct-5-en-2-ol]	2.73
CN(CCCc1nc2ccccc2[nH]1)CC[C@]1(O)C[C@H]2CC[C@@H]1C=C2c1ccc(F)cc1 (relative stereo) [Example 8, rac-(1R*,2R*,4R*)-2-(2-{[3-(1H-Benzoimidazol-2-yl)-propyl]-methyl-amino}-ethyl)-5-(4-fluoro-phenyl)-bicyclo[2.2.2]oct-5-en-2-ol]	1.79
CC(C)C(=O)O[C@@]1(CCN(C)CCCc2ccnc3ccccc23)C[C@H]2CC[C@@H]1C=C2c1ccccc1 (relative stereo) [Example 50A, rac-Isobutyric acid (1R*,2R*,4R*)-2-{2-[methyl-(3-quinolin-4-yl-propyl)-amino]-ethyl}-5-phenyl-bicyclo[2.2.2]oct-5-en-2-yl ester]	> 10
COc1cccc2[nH]c(CCCN(C)CC[C@]3(O)C[C@H]4CC[C@@H]3C=C4c3ccccc3)nc12 (relative stereo) [Example 26, rac-(1R*,2R*,4R*)-2-(2-{[3-(4-Methoxy-1H-benzoimidazol-2-yl)-propyl]-methyl-amino}-ethyl)-5-phenyl-bicyclo[2.2.2]oct-5-en-2-ol]	> 10
CC(C)C(=O)O[C@@]1(CCN(C)CCCc2nc3c(Cl)cccc3[nH]2)C[C@H]2CC[C@@H]1C=C2c1ccccc1 (relative stereo) [Example 57A, rac-Isobutyric acid (1R*,2R*,4R*)-2-(2-{[3-(4-chloro-1H-benzoimidazol-2-yl)-propyl]-methyl-amino}-ethyl)-5-phenyl-bicyclo[2.2.2]oct-5-en-2-yl ester]	1.99
COc1cccc2c1nc(CCCN(C)CC[C@]1(O)C[C@H]3CC[C@@H]1C=C3c1ccccc1)n2C (relative stereo) [Example 37, rac-(1R*,2R*,4R*)-2-(2-{[3-(4-Methoxy-1-methyl-1H-benzoimidazol-2-yl)-propyl]-methyl-amino}-ethyl)-5-phenyl-bicyclo[2.2.2]oct-5-en-2-ol]	6.65
CN(CCCc1nc2cccc(O)c2[nH]1)CC[C@]1(O)C[C@H]2CC[C@@H]1C=C2c1ccccc1 (relative stereo) [Example 34, rac-(1R*,2R*,4R*)-2-(3-{[2-(2-Hydroxy-5-phenyl-bicyclo[2.2.2]oct-5-en-2-yl)-ethyl]-methyl-amino}-propyl)-3H-benzoimidazol-4-ol]	2.56
CCCC1=C(C)[C@H]2CC[C@@H]1C[C@]2(CCN(C)CCCc1nc2ccccc2[nH]1)OC(=O)C(C)C (relative stereo) [Example 16A, rac-Isobutyric acid (1R*,2R*,4R*)-2-(2-{[3-(1H-benzoimidazol-2-yl)-propyl]-methyl-amino}-ethyl)-6-methyl-5-propyl-bicyclo[2.2.2]oct-5-en-2-yl ester]	2.39
CC(C)C(=O)O[C@@]1(CCN(C)CCCc2nc3ccccc3[nH]2)C[C@H]2CC[C@@H]1C=C2c1ccc(F)cc1 (relative stereo) [Example 8A, rac-Isobutyric acid (1R*,2R*,4R*)-2-(2-{[3-(1H-benzoimidazol-2-yl)-propyl]-methyl-amino}-ethyl)-5-(4-fluoro-phenyl)-bicyclo[2.2.2]oct-5-en-2-yl ester]	1.63
CC(C)C(=O)O[C@@]1(CCN(C)CCCc2nc3ccccc3[nH]2)C[C@@H]2C=C[C@H]1CC2 (relative stereo) [Example 75A, rac-Isobutyric acid (1R*,2R*,4R*)-2-(2-{[3-(1H-benzoimidazol-2-yl)-propyl]-methyl-amino}-ethyl)-bicyclo[2.2.2]oct-5-en-2-yl ester]	1.78
CN(CCCc1ccnc2ccccc12)CC[C@]1(O)C[C@H]2CC[C@@H]1C=C2c1ccccc1 (relative stereo) [Example 50, rac-(1R*,2R*,4R*)-2-{2-[Methyl-(3-quinolin-4-yl-propyl)-amino]-ethyl}-5-phenyl-bicyclo[2.2.2]oct-5-en-2-ol]	> 10
